Results as given in ChEMBL document CHEMBL3228009, “Hypobetalipoproteinemic agents. 2. Compounds related to 4-(1-adamantyloxy)aniline” (J Med Chem, 1979).

How the values were obtained:
Rattus norvegicus [1] = assay: Toxicity in diet-induced hypercholesteremic rat model assessed as increase in body weight at 50 mg/kg, po relative to control; format: organism-based; design: dose 50 mg/kg, route oral; conditions: in vivo
Rattus norvegicus [2] = organism: Rattus norvegicus; assay: Selectivity ratio of T/C for heparin precipitating lipoproteins to T/C for total serum cholesterol in diet-induced hypercholesteremic rat model; format: functional
Rattus norvegicus [3] = assay: Toxicity in diet-induced hypercholesteremic rat model assessed as increase in food intake at 50 mg/kg, po relative to control; format: organism-based; design: dose 50 mg/kg, route oral; conditions: in vivo
Rattus norvegicus [4] = assay: Hypobetalipoproteinemic activity in diet-induced hypercholesteremic rat model assessed as decrease in total serum cholesterol at 50 mg/kg, po relative to control; format: functional
Rattus norvegicus [5] = assay: Hypobetalipoproteinemic activity in diet-induced hypercholesteremic rat model assessed as decrease in heparin precipitating lipoproteins at 50 mg/kg, po relative to control; format: functional

SMILES	Activity (Rattus norvegicus [1]) [%]	Selectivity ratio (Rattus norvegicus [2])	Activity (Rattus norvegicus [3]) [%]	T/C (Rattus norvegicus [4])	T/C (Rattus norvegicus [5])
CNc1ccc(CC23CC4CC(CC(C4)C2)C3)cc1.Cl	> 63	0.82	> 73	0.55	0.45
Cl.Nc1ccc(CC23CC4CC(CC(C4)C2)C3)cc1	> 63	0.5	> 73	0.45	0.23
Cc1cc(OC23CC4CC(CC(C4)C2)C3)ccc1N	< 63	0.38	< 73	0.64	0.25
Cc1cc(OC23CC4CC(CC(C4)C2)C3)cc(C)c1N1CCCC1	> 63	1.08	> 73	1.18	1.28
CN(CCN1CCCC1)c1ccc(OC23CC4CC(CC(C4)C2)C3)cc1.Cl	> 63	0.97	> 73	1.26	1.22
Cc1cc(N)cc(C)c1OC12CC3CC(CC(C3)C1)C2.Cl	> 63	0.93	> 73	0.86	0.8
c1cc(N2CCCC2)ccc1SC12CC3CC(CC(C3)C1)C2	> 63	1.14	> 73	0.83	0.95
CN(CCO)c1ccc(OC23CC4CC(CC(C4)C2)C3)cc1	> 63	0.88	> 73	0.63	0.55
CN(C)CCCN(C)c1ccc(OC23CC4CC(CC(C4)C2)C3)cc1.Cl	> 63	1.01	> 73	0.98	0.99
C#CCN(C)c1ccc(OC23CC4CC(CC(C4)C2)C3)cc1.Cl	> 63	1.05	> 73	0.57	0.6
c1cc(N2CCCCC2)ccc1OC12CC3CC(CC(C3)C1)C2	> 63	0.58	> 73	0.44	0.25
S=C(Nc1ccc(OC23CC4CC(CC(C4)C2)C3)cc1)NC12CC3CC(CC(C3)C1)C2	> 63	1.03	> 73	0.88	0.91
CNc1ccc(OC2C3CC4CC(C3)CC2C4)cc1.Cl (stereo not given)	> 63	1.04	> 73	0.83	0.87
O=C(Nc1ccccc1)Nc1ccc(OC23CC4CC(CC(C4)C2)C3)cc1	> 63	1.05	> 73	1.18	1.23
CN(CCOc1ccccc1)c1ccc(OC23CC4CC(CC(C4)C2)C3)cc1	> 63	1.03	> 73	1.03	1.06
CCCCCCCCN(C)c1ccc(OC23CC4CC(CC(C4)C2)C3)cc1.Cl	> 63	0.91	> 73	1.15	1.04
Nc1ccc(SC23CC4CC(CC(C4)C2)C3)cc1	> 63	0.87	> 73	0.51	0.45
CCNc1ccc(OC23CC4CC(CC(C4)C2)C3)cc1.Cl	> 63	0.72	> 73	0.49	0.36

SMILES	Activity (Rattus norvegicus [1]) [%]	Selectivity ratio (Rattus norvegicus [2])	Activity (Rattus norvegicus [3]) [%]	T/C (Rattus norvegicus [4])	T/C (Rattus norvegicus [5])
CNC(=O)Nc1ccc(OC23CC4CC(CC(C4)C2)C3)cc1	> 63	0.91	> 73	1.06	0.96
Nc1ccc(OC23CCC(CC2)CC3)cc1	> 63	0.9	> 73	0.8	0.72
CC(=O)Nc1ccc(OC23CC4CC(CC(C4)C2)C3)cc1F	> 63	0.55	> 73	0.62	0.35
Nc1ccc(OC23CC4CC(CC(C4)C2)C3)c(F)c1	> 63	0.92	> 73	0.57	0.52
Cc1cc(N2CCCC2)cc(C)c1OC12CC3CC(CC(C3)C1)C2	> 63	0.96	> 73	0.81	0.78
CCOC(=O)Nc1ccc(OC23CC4CC(CC(C4)C2)C3)cc1	> 63	0.74	> 73	0.57	0.42
c1cc(N2CCCC2)ccc1OC1C2CC3CC(C2)CC1C3 (stereo not given)	> 63	1.01	> 73	1.07	1.07
CN(CCc1ccccc1)c1ccc(OC23CC4CC(CC(C4)C2)C3)cc1.Cl	> 63	0.98	> 73	1.09	1.07
CC(=O)Nc1ccc(OC23CC4CC(CC(C4)C2)C3)cc1	> 63	0.76	> 73	0.66	0.5
CSCc1cc(OC23CC4CC(CC(C4)C2)C3)ccc1N	> 63	0.76	> 73	0.49	0.38
c1cc(N2CCOCC2)ccc1OC12CC3CC(CC(C3)C1)C2	> 63	0.94	> 73	0.92	0.87
c1ccc(N2CCCC2)c(CC23CC4CC(CC(C4)C2)C3)c1	> 63	1.01	> 73	1.39	1.4
CN(c1ccc(N)cc1)C12CC3CC(CC(C3)C1)C2.Cl	< 63	0.98	< 73	0.84	0.82
Fc1cc(N2CCCC2)ccc1OC12CC3CC(CC(C3)C1)C2	> 63	1.02	> 73	0.8	0.82
CC(=O)Nc1ccc(N(C(C)=O)C23CC4CC(CC(C4)C2)C3)cc1	> 63	0.98	> 73	1	0.98
OC12CC3CC(CC(C3)C1)C2	> 63	1.04	> 73	0.94	0.98
Cc1cc(OC23CC4CC(CC(C4)C2)C3)cc(C)c1N	> 63	0.93	> 73	0.77	0.72
